In patent publication US6191155A (priority 1997, dated 2001):

Tested on: not listed separately
Experiment: log P by HPLC (EEC Directive 79/831 Annex V.A8)
Type: physicochemical
Details: gradient method, acetonitrile/0.1% of aqueous phosphoric acid
Description: *) The log P values were determined in accordance with EEC Directive 79/831
Annex V.A8 by HPLC (gradient method, acetonitrile/0.1% of aqueous
With CSC(=O)c1snc(Cl)c1Cl [Example 15] the chromatographic logP was 3.46. Cc1ccc(C(C)OC(=O)c2snc(Cl)c2Cl)cc1 (centres unmarked) [Example 19] gave a chromatographic logP of 5.02. In the case of COC(=O)c1ccc(OCCOC(=O)c2snc(Cl)c2Cl)cc1 [Example 6], the chromatographic logP is reported as 3.91. O=C(OCCOc1cccc(C(F)(F)F)c1)c1snc(Cl)c1Cl [Example 4] gave a chromatographic logP of 4.71. CC(C)CSC(=O)c1snc(Cl)c1Cl [Example 17] showed a chromatographic logP of 5.16. O=C(OCCOc1ccc(Cl)cc1)c1snc(Cl)c1Cl [Example 10] gave a chromatographic logP of 4.58. O=C(OCCOCC(F)(F)F)c1snc(Cl)c1Cl [Example 8] gave a chromatographic logP of 3.55. In the case of CCCSC(=O)c1snc(Cl)c1Cl [Example 18], the chromatographic logP is reported as 4.66. O=C(OCCn1nnc2ccccc21)c1snc(Cl)c1Cl [Example 11] showed a chromatographic logP of 2.81. In the case of CCN(CC)CCOC(=O)c1snc(Cl)c1Cl [Example 2], the chromatographic logP is reported as 1.37. With O=C(OCCOCc1ccccc1)c1snc(Cl)c1Cl [Example 5] the chromatographic logP was 4.12. Work on O=C(OCC(O)CO)c1snc(Cl)c1Cl (centres unmarked) [Example 20] yielded a chromatographic logP of 1.49. O=C(OCCOC(CF)CF)c1snc(Cl)c1Cl [Example 9] gave a chromatographic logP of 3.11. CCN(CCOCCOC(=O)c1snc(Cl)c1Cl)c1ccccc1 [Example 7] gave a chromatographic logP of 2.6. Work on O=C(OCCOCCN1CCCC1)c1snc(Cl)c1Cl [Example 3] yielded a chromatographic logP of 1.36.

Tested on: Plutella xylostella
Experiment: Plutella test (caterpillars of the diamond-back moth on cabbage leaves)
Type: in vivo, Plutella xylostella (on Brassica oleracea)
Details: 168 h, active compound concentration 0.1 % by weight, after 7 days, read-out: Kill in % after 7d
Description: Solvent: 7 parts by weight of dimethylformamide
Emulsifier: 1 part by weight of alkylaryl polyglycol ether
(§1) To produce a suitable preparation of active compound, 1 part by weight of active compound is mixed with the stated amounts of solvent and emulsifier, and the concentrate is diluted with water to the desired concentration.
Cabbage leaves (Brassica oleracea) are treated by being dipped into the preparation of active compound of the desired concentration and are populated with caterpillars of the diamond-back moth (Plutella xylostella) while the leaves are still moist.
After 7 days, the kill is determined. An efficacy of 100% means that all caterpillars have been killed, while an efficacy of 0% means that none of the caterpillars have been killed.
Compound O=C(OCc1cccnc1)c1snc(Cl)c1Cl [Example 12] has a mortality at 0.1 % strength of 100%. Compound O=C(OCCOCCN1CCCC1)c1snc(Cl)c1Cl [Example 3] has a mortality at 0.1 % strength of 100%.

Tested on: Erysiphe graminis f.sp. hordei
Experiment: Erysiphe test (barley)/protective
Type: in vivo, Erysiphe graminis f.sp. hordei (on barley)
Details: active compound concentration 250 (head: % by weight); protective; 7 days after inoculation; 100% = no infection
Description: Erysiphe Test (Barley)/Protective
(§2) Solvent: 10 parts by weight of N-methyl-pyrrolidone
(§3) Emulsifier: 0.6 parts by weight of alkylaryl polyglycol ether
as §1
To test for protective activity, young plants are sprayed with the preparation of active compound at the stated application rate.
After the spray coating has dried on, the plants are dusted with spores of Erysiphe graminis f.sp. hordei.
The plants are placed in a greenhouse at a temperature of approximately 20° C. and a relative atmospheric humidity of approximately 80% to promote the development of mildew pustules.
Evaluation is carried out 7 days after the inoculation. 0% means an efficacy which corresponds to that of the control, while an efficacy of 100% means that no infection is observed.
Work on O=C(OCCOCCN1CCCC1)c1snc(Cl)c1Cl [Example 3] yielded an Efficacy in % of 100%.

Tested on: fungi
Experiment: not given
Details: cited from earlier work
For CC(C)OC(=O)c1snc(Cl)c1Cl [isopropyl 3,4-dichloro-isothiazol-5-carboxylate], the “activity in controlling fungi” value is listed as “good”.

Tested on: Leptosphaeria nodorum
Experiment: Leptosphaeria nodorum test (wheat)/protective
Type: in vivo, Leptosphaeria nodorum (on wheat)
Details: application rate 250 g/ha; protective; evaluation 10 days after inoculation
Description: Leptosphaeria nodorum Test (Wheat)/Protective
as §2, §3, §1
To test for protective activity, young plants are sprayed with the preparation of active compound at the stated application rate. After the spray coating has dried on, the plants are sprayed with a spore suspension of Leptosphaeria nodorum. The plants remain in an incubation cabin at 20° C. and 100% relative atmospheric humidity for 48 hours.
The plants are placed in a greenhouse at a temperature or approximately 15° C. and a relative atmospheric humidity of 80%.
Evaluation is carried out 10 days after the inoculation. 0% means an efficacy which corresponds to that of the control, while an efficacy of 100% means that no infection is observed.
Work on O=C(OCCc1ccc(Cl)cc1)c1snc(Cl)c1Cl [Example 13] yielded an Efficacy in % of 81%.
